What was measured:
[1] = target: binding between Nrf2 and Keap1 (Homo sapiens (Human), UniProt Q14145); assay: FP assay (in vitro): inhibition of Nrf2-Keap1 binding by fluorescence polarization; conditions: GST-fused human Keap1 (325-642) 20 nM, FITC-labeled Nrf2 peptide 10 nM, 2 hr at room temperature
[2] = test system: NQO1 activity in Hepa1c1c7 cells; assay: NAD(P)H: quinone oxidoreductase-1 (NQO1) enzyme induction assay (in vitro); format: cell-based, mouse; conditions: Mus musculus, Hepa-1c1c7, NQO1 activity with 400 nM test compound as a ratio from the base without compound, about 48 hr
Procedure, shortened: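 Mouse Hepa1c1c7 hepatoma cells treated 48 hr with 400 nM compound (final). NQO1 activity in lysates read by absorbance at 610 nm; value is background-subtracted activity ratio versus untreated cells.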

Sequence of binding between Nrf2 and Keap1 (Q14145 325-624 limits assumed): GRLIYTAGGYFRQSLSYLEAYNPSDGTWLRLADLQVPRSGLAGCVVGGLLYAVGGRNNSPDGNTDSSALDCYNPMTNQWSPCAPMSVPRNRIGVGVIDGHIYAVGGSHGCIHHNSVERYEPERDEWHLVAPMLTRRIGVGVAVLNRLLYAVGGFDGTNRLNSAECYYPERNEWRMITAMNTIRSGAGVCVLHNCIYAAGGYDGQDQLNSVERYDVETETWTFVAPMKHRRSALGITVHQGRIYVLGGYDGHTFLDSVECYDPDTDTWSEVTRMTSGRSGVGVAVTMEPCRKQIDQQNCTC

SMILES | IC50 [1] [nM] | fold induction at 0.4 µM [2]
CC[C@@H]1CN(Cc2cc(C(CC(=O)O)c3ccc4c(nnn4C)c3C)cc3c2CCC3)S(=O)(=O)c2cc(Cl)cnc2O1 (stereo partly drawn) [Example 3, 3-(7-{[(4R)-8-Chloro-4-ethyl-1,1-dioxido-3,4-dihydro-2H-pyrido[2,3-b][1,4,5]oxathiazepin-2-yl]methyl}-2,3-dihydro-1H-inden-5-yl)-3-(1,4-dimethyl-1H-benzotriazol-5-yl)propanoic acid] | ≤ 10 | > 5
CC[C@@H]1CN(Cc2cc([C@H](CC(=O)O)c3cc(C4CC4)c4c(nnn4C)c3C)cc3c2CCC3)[C@@H](C)c2ncccc2O1 [Example 106, (3S)-3-(7-Cyclopropyl-1,4-dimethyl-1H-benzotriazol-5-yl)-3-(7-{[(2R,5S)-2-ethyl-5-methyl-2,3-dihydropyrido[2,3-f][1,4]oxazepin-4(5H)-yl]methyl}-2,3-dihydro-1H-inden-5-yl)propanoic acid] | ≤ 10 | > 5
CC[C@@H]1CN(Cc2cc([C@@H](c3ccc4c(nnn4C)c3C)C(C)(C)C(=O)O)cc3c2CCC3)S(=O)(=O)c2cc(Cl)cnc2O1 [Example 38, (3S)-3-(7-{[(4R)-8-Chloro-4-ethyl-1,1-dioxido-3,4-dihydro-2H-pyrido[2,3-b][1,4,5]oxathiazepin-2-yl]methyl}-2,3-dihydro-1H-inden-5-yl)-3-(1,4-dimethyl-1H-benzotriazol-5-yl)-2,2-dimethylpropanoic acid] | ≤ 10 | > 5
CC[C@@H]1CN(Cc2cc(C(CC(=O)O)c3cc(C4CC4)c4c(nnn4C)c3C)cc3ccoc23)S(=O)(=O)c2cc(Cl)cnc2O1 (stereo partly drawn) [Example 110, 3-(7-{[(4R)-8-Chloro-4-ethyl-1,1-dioxido-3,4-dihydro-2H-pyrido[2,3-b][1,4,5]oxathiazepin-2-yl]methyl}-1-benzofuran-5-yl)-3-(7-cyclopropyl-1,4-dimethyl-1H-benzotriazol-5-yl)propanoic acid] | 30 to 100 | > 5
CC[C@@H]1CN(Cc2cc(C(CC(=O)O)c3cc(C(F)(F)F)c4c(nnn4C)c3C)cc3ccsc23)S(=O)(=O)c2cc(Cl)cnc2O1 (stereo partly drawn) [Example 53, 3-(7-{[(4R)-8-Chloro-4-ethyl-1,1-dioxido-3,4-dihydro-2H-pyrido[2,3-b][1,4,5]oxathiazepin-2-yl]methyl}-1-benzothiophen-5-yl)-3-[1,4-dimethyl-7-(trifluoromethyl)-1H-benzotriazol-5-yl]propanoic acid] | 10 to 30 | > 5
CC[C@@H]1CN(Cc2cc(C(CC(=O)O)c3ccc4c(nnn4C)c3Cl)cc3ccsc23)S(=O)(=O)c2cc(Cl)cnc2O1 (stereo partly drawn) [Example 2, 3-(7-{[(4R)-8-Chloro-4-ethyl-1,1-dioxido-3,4-dihydro-2H-pyrido[2,3-b][1,4,5]oxathiazepin-2-yl]methyl}-1-benzothiophen-5-yl)-3-(4-chloro-1-methyl-1H-benzotriazol-5-yl)propanoic acid] | 10 to 30 | > 5
CCOc1ccc2c(n1)O[C@H](CC)CN(Cc1cc(C(CC(=O)O)c3ccc4c(nnn4C)c3C)cc3c1CCC3)S2(=O)=O (stereo partly drawn) [Example 9, 3-(1,4-Dimethyl-1H-benzotriazol-5-yl)-3-(7-{[(4R)-7-ethoxy-4-ethyl-1,1-dioxido-3,4-dihydro-2H-pyrido[2,3-b][1,4,5]oxathiazepin-2-yl]methyl}-2,3-dihydro-1H-inden-5-yl)propanoic acid] | 10 to 30 | > 5
CC[C@@H]1CN(Cc2cc(C(CC(=O)O)c3ccc4c(nnn4C)c3Cl)cc3c2CCC3)S(=O)(=O)c2cc(Cl)cnc2O1 (stereo partly drawn) [Example 29, 3-(7-{[(4R)-8-Chloro-4-ethyl-1,1-dioxido-3,4-dihydro-2H-pyrido[2,3-b][1,4,5]oxathiazepin-2-yl]methyl}-2,3-dihydro-1H-inden-5-yl)-3-(4-chloro-1-methyl-1H-benzotriazol-5-yl)propanoic acid] | ≤ 10 | > 5
CC[C@@H]1CN(Cc2cc([C@@H](CC(=O)O)c3cc(C)c4c(nnn4C)c3C)cc3c2CCC3)S(=O)(=O)c2cc(Cl)cnc2O1 [Example 44, (3R)-3-(7-{[(4R)-8-Chloro-4-ethyl-1,1-dioxido-3,4-dihydro-2H-pyrido[2,3-b][1,4,5]oxathiazepin-2-yl]methyl}-2,3-dihydro-1H-inden-5-yl)-3-(1,4,7-trimethyl-1H-benzotriazol-5-yl)propanoic acid] | ≤ 10 | 3 to 5
CC[C@@H]1CN(Cc2cc([C@@H](CC(=O)O)c3cc(O)c4c(nnn4C)c3C)cc3ccsc23)[C@@H](C)c2ncccc2O1 (single isomer, unassigned) [Example 94, (3R*)-3-(7-{[(2R,5S)-2-Ethyl-5-methyl-2,3-dihydropyrido[2,3-f][1,4]oxazepin-4(5H)-yl]methyl}-1-benzothiophen-5-yl)-3-(7-hydroxy-1,4-dimethyl-1H-benzotriazol-5-yl)propanoic acid] | ≤ 10 | > 5
CCOc1ccc2c(n1)O[C@H](CC)CN(Cc1cc(C(CC(=O)O)c3ccc4c(nnn4C)c3C)cc3ccsc13)S2(=O)=O (stereo partly drawn) [Example 19, 3-(1,4-Dimethyl-1H-benzotriazol-5-yl)-3-(7-{[(4R)-7-ethoxy-4-ethyl-1,1-dioxido-3,4-dihydro-2H-pyrido[2,3-b][1,4,5]oxathiazepin-2-yl]methyl}-1-benzothiophen-5-yl)propanoic acid] | 10 to 30 | > 5
CC[C@@H]1CN(Cc2cc(C(CC(=O)O)c3cc(C4CC4)c4c(nnn4C)c3C)cc3c2OCC3)[C@@H](C)c2ncccc2O1 (stereo partly drawn) [Example 107, 3-(7-Cyclopropyl-1,4-dimethyl-1H-benzotriazol-5-yl)-3-(7-{[(2R,5S)-2-ethyl-5-methyl-2,3-dihydropyrido[2,3-f][1,4]oxazepin-4(5H)-yl]methyl}-2,3-dihydro-1-benzofuran-5-yl)propanoic acid] | 10 to 30 | > 5
Cc1c([C@H](CC(=O)O)c2cc(CN3C[C@@H](C4CC4)Oc4ccc(O)nc4C3C)c3sccc3c2)cnc2c1nnn2C (single isomer, unassigned) [Example 85, (3R)-3-(7-{[(2R,5R*)-2-Cyclopropyl-7-hydroxy-5-methyl-2,3-dihydropyrido[2,3-f][1,4]oxazepin-4(5H)-yl]methyl}-1-benzothiophen-5-yl)-3-(3,7-dimethyl-3H-[1,2,3]triazolo[4,5-b]pyridin-6-yl)propanoic acid] | 10 to 30 | > 5
CC[C@@H]1CN(Cc2cc([C@@H](CC(=O)O)c3cc(OC(F)F)c4c(nnn4C)c3C)cc3c2CCC3)S(=O)(=O)c2cc(Cl)cnc2O1 [Example 98, (3R)-3-(7-{[(4R)-8-Chloro-4-ethyl-1,1-dioxido-3,4-dihydro-2H-pyrido[2,3-b][1,4,5]oxathiazepin-2-yl]methyl}-2,3-dihydro-1H-inden-5-yl)-3-[7-(difluoromethoxy)-1,4-dimethyl-1H-benzotriazol-5-yl]propanoic acid] | ≤ 10 | > 5
Cc1c([C@H](CC(=O)O)c2cc(CN3CC4(CC4)Oc4ccc(O)nc4[C@H]3C)c3sccc3c2)ccc2c1nnn2C (single isomer, unassigned) [Example 88, (3R)-3-(1,4-Dimethyl-1H-benzotriazol-5-yl)-3-(7-{[(5′R*)-7′-hydroxy-5′-methyl-3′H-spiro[cyclopropane-1,2′-pyrido[2,3-f][1,4]oxazepin]-4′(5′H)-yl]methyl}-1-benzothiophen-5-yl)propanoic acid] | 10 to 30 | > 5
CC[C@@H]1CN(Cc2cc([C@H](CC(=O)O)c3cc(C)c4c(nnn4C)c3C)cc3ccsc23)[C@@H](C)c2ncccc2O1 [Example 68, (3S)-3-(7-{[(2R,5S)-2-Ethyl-5-methyl-2,3-dihydropyrido[2,3-f][1,4]oxazepin-4(5H)-yl]methyl}-1-benzothiophen-5-yl)-3-(1,4,7-trimethyl-1H-benzotriazol-5-yl)propanoic acid] | ≤ 10 | > 5
CC[C@@H]1CN(Cc2cc([C@H](CC(=O)O)c3cc(Cl)c4c(nnn4C)c3C)cc3ccsc23)S(=O)(=O)c2cc(Cl)cnc2O1 [Example 30, (3S)-3-(7-Chloro-1,4-dimethyl-1H-benzotriazol-5-yl)-3-(7-{[(4R)-8-chloro-4-ethyl-1,1-dioxido-3,4-dihydro-2H-pyrido[2,3-b][1,4,5]oxathiazepin-2-yl]methyl}-1-benzothiophen-5-yl)propanoic acid] | ≤ 10 | 3 to 5
CC[C@@H]1CN(Cc2cc([C@@H](CC(=O)O)c3ccc4c(nnn4C)c3Cl)cc3ccsc23)[C@@H](C)c2ncccc2O1 [Example 75, (3R)-3-(4-Chloro-1-methyl-1H-benzotriazol-5-yl)-3-(7-{[(2R,5S)-2-ethyl-5-methyl-2,3-dihydropyrido[2,3-f][1,4]oxazepin-4(5H)-yl]methyl}-1-benzothiophen-5-yl)propanoic acid] | ≤ 10 | > 5
Cc1c([C@@H](CC(=O)O)c2cc(CN3C[C@@H](C)Oc4ccc(O)nc4[C@@H]3C)c3sccc3c2)ccc2c1nnn2C [Example 80, (3S)-3-(1,4-Dimethyl-1H-benzotriazol-5-yl)-3-(7-{[(2R,5S)-7-hydroxy-2,5-dimethyl-2,3-dihydropyrido[2,3-f][1,4]oxazepin-4(5H)-yl]methyl}-1-benzothiophen-5-yl)propanoic acid] | 10 to 30 | > 5
CC[C@@H]1CN(Cc2cc(C(CC(=O)O)c3ccc4c(nnn4CCN(C)C)c3C)cc3ccsc23)S(=O)(=O)c2cc(Cl)cnc2O1 (stereo partly drawn) [Example 58, 3-(7-{[(4R)-8-Chloro-4-ethyl-1,1-dioxido-3,4-dihydro-2H-pyrido[2,3-b][1,4,5]oxathiazepin-2-yl]methyl}-1-benzothiophen-5-yl)-3-{1-[2-(dimethylamino)ethyl]-4-methyl-1H-benzotriazol-5-yl}propanoic acid] | 30 to 100 | > 5
